The values that follow come from US20260166039A1 (SCHRÖDINGER, INC., priority 2022, published 2026).

The target in one experiment is T1, Wee1 kinase domain (Homo sapiens, UniProt P30291).
T1 construct: Wee1 kinase domain was purchased from Carna (catalog #05-177); purchased Carna 05-177
Description: Wee1 Kinase Biochemical Assay (ADP-Glo). The following applies: Wee1 kinase domain, 15 uM ATP, ADP-Glo. In a few lines: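 The reaction mix held 1 nM Wee1 kinase domain, 15 uM ATP and 2 ng/mL Poly(Lys,Tyr 4:1) substrate and was left for 4 hours at 25 °C. ADP production was then measured with ADP-Glo, and percent inhibition was derived relative to DMSO and a saturating Wee1 inhibitor.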
A general note: ADP-Glo turns the ADP formed in a reaction into a luminescent signal.

The test system of experiment [1] is phosphorylation of Cdc2 Y15 (Wee1 substrate) in A427 cells. Nature of the experiment: Phosphorylated Cdc2 MSD Electrochemiluminescence Assay. The class given is cell-based. The following applies: Homo sapiens, A-427, pCDC2 MSD. As for the experimental part:
Phosphorylated Cdc2 MSD Electrochemiluminescence Assay
The effect of Wee1 inhibitors on cellular phosphorylation of the Wee1 substrate Cdc2 was determined using the following protocol:
A total of 40,000 A427 cells in 100 uL culture medium (1640 medium+10% Fetal bovine serum+1% Penicillin-Streptomycin) were plated in 96-well cell culture plates. 3-fold serial dilutions of test compounds were prepared in completed PBS at 25× final concentration. After 20 hours, the plates were removed and 4 μL of each were added to the cells and incubated with shaking for 30 minutes at 37° C., 5% CO2. Each concentration was tested in duplicate. After a total 6 hours incubation, plates were removed and centrifuged for 5 minutes and 100 uL of supernatant from each well was removed. Cells were washed with 200 μL PBS and lysed with 50 μL MSD lysis buffer (Meso Scale Diagnostics) supplied with 1× complete ULTRA cocktail inhibitor (Roche).
To detect phosphorylation of Cdc2 Y15, 30 μL of capture antibody solution (CST catalog #9116S 1:200) was added into each well of the MSD plate (MSD catalog #L15XB-6), sealed and incubated at 4° C. with shaking (450 rpm) overnight. The antibody solution was removed, wells blocked with BSA solution and plates washed three times with PBST, followed by addition of 30 μl of cell lysate per well. After 2 hours of incubation, plates were washed three times with PBST. 30 μL of 1× detection antibody solution (CST catalog #4539S 1:200) was then added to each well and incubated for 1 hour. Plates were washed three times with PBST and 30 μL of 1× secondary antibody solution (MSD, catalog #:R32AB-1, 1:5000) was added to each well and incubated for 1 hour. Plates were washed three times with PBST and 150 μL of 1× Read Buffer T (MSD, catalog #R92TC-1) was added to each well of the MSD plate. The electrochemiluminescence signal was measured on a MESO SECTOR S600 plate reader. The percentage of remaining phosphorylated Cdc2 signal was calculated following the equation below.
[formula] • HC (high control): Cells treated with DMSO • Cpds: Cells treated with test compounds • LC (low control): Cells treated with positive control Wee1 inhibitor

Where only a bound is given, the exact number is not on record here.

T1 sequence (P30291 299-569 limits assumed): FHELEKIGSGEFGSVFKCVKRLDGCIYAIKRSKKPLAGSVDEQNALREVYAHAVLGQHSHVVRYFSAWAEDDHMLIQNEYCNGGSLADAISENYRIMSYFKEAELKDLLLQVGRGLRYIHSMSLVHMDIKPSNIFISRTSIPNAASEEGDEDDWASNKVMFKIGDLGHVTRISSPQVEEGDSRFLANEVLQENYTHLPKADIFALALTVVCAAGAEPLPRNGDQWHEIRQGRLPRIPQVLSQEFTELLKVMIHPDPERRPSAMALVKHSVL

Broadly, the IC50 is the concentration needed to halve the response being measured. A higher IC50 goes with lower potency. Turning to `CNCc1cccc(N2c3nc(Nc4ccc([C@@H]5CC(=O)N(C)C5)cc4)ncc3[C@@]3(C)COC(C)(C)C[C@@H]23)n1` (single isomer, unassigned) [Example 69], the half-inhibitory concentration (IC50) is < 10 nM on Wee1 kinase domain and < 100 nM in experiment [1].

Consider `CNCc1cccc(N2c3nc(Nc4ccc(C5CCN(C)CC5)c(C)c4)ncc3[C@@]3(C)COC(C)(C)C[C@@H]23)n1` (single isomer, unassigned) [Example 72], for which the IC50 on Wee1 kinase domain is < 10 nM; in experiment [1], 100 to 1000 nM.

As for `CNCc1cccc(N2c3nc(Nc4ccc(C(C)(C)C)cc4)ncc3[C@@]3(C)COC(C)(C)C[C@@H]23)n1` (single isomer, unassigned) [Example 73], the values for the IC50 (on Wee1 kinase domain; in experiment [1]) were < 10 nM and 100 to 1000 nM, respectively.

With `CNCc1cccc(N2c3nc(Nc4ccc(C(C)(C)C(=O)N(C)C)cc4)ncc3[C@@]3(C)COC(C)(C)C[C@@H]23)n1` (single isomer, unassigned) [Example 76], the figures for the IC50 (on Wee1 kinase domain; in experiment [1]) were < 10 nM and 100 to 1000 nM, respectively.

As to `CNCc1cccc(N2c3nc(Nc4ccc([C@]5(C)CCN(C)C5=O)cc4)ncc3[C@@]3(C)COC(C)(C)C[C@@H]23)n1` (single isomer, unassigned) [Example 78], the IC50 on Wee1 kinase domain was < 10 nM; in experiment [1], 100 to 1000 nM.

As to `CNCc1cccc(N2c3nc(Nc4ccc([C@@]5(C)CCN(C)C5=O)cc4)ncc3[C@@]3(C)COC(C)(C)C[C@@H]23)n1` (single isomer, unassigned) [Example 80], the results for the half-maximal inhibitory concentration (IC50) (on Wee1 kinase domain; in experiment [1]) were < 10 nM and 100 to 1000 nM, respectively.

Turning to `CNCc1cccc(N2c3nc(Nc4ccc(C5(C)COC5)cc4)ncc3[C@]3(C)COC(C)(C)C[C@H]23)n1` (single isomer, unassigned) [Example 82], the IC50 on Wee1 kinase domain was < 10 nM; in experiment [1], 100 to 1000 nM.

Turning to `CNCc1cccc(N2c3nc(Nc4ccc(C5(C)COC5)cc4)ncc3[C@@]3(C)COC(C)(C)C[C@@H]23)n1` (single isomer, unassigned) [Example 84], the IC50 against Wee1 kinase domain was < 10 nM; in experiment [1] it was 100 to 1000 nM.

For the compound `CNCc1cccc(N2c3nc(Nc4ccc(N5C6CCC5COC6)c(C)c4)ncc3[C@@]3(C)COC(C)(C)C[C@@H]23)n1` (single isomer, unassigned) [Example 85], the values for the IC50 (against Wee1 kinase domain; in experiment [1]) were < 10 nM and 100 to 1000 nM, respectively.

`CNCc1cccc(N2c3nc(Nc4ccc(N5C6CCC5COC6)cc4)ncc3[C@@]3(C)COC(C)(C)C[C@@H]23)n1` (single isomer, unassigned) [Example 87]: the figures for the 50% inhibitory concentration (IC50) (against Wee1 kinase domain; in experiment [1]) were < 10 nM and 100 to 1000 nM, respectively.

For the compound `CNCc1cccc(N2c3nc(Nc4ccc(N5C6CCC5COC6)cc4)ncc3[C@]3(C)COC(C)(C)C[C@H]23)n1` (single isomer, unassigned) [Example 88], the figures for the IC50 (against Wee1 kinase domain; in experiment [1]) were < 10 nM and 100 to 1000 nM, respectively.

Consider `CNCc1cccc(N2c3nc(Nc4ccc5c(c4)C(=O)N(C)CC5(C)C)ncc3[C@@]3(C)COC(C)(C)C[C@@H]23)n1` (single isomer, unassigned) [Example 92], for which the results for the half-maximal inhibitory concentration (IC50) (at Wee1 kinase domain; in experiment [1]) were < 10 nM and 100 to 1000 nM, respectively.

On to `CNCc1cccc(N2c3nc(Nc4ccc(N5CCN(C)CC5)cc4)ncc3[C@@]3(C)COC(C)(C)C[C@@H]23)n1` (single isomer, unassigned) [Example 94], for which the IC50 was < 10 nM on Wee1 kinase domain and 100 to 1000 nM in experiment [1].

Turning to `CNCc1cccc(N2c3nc(Nc4ccc([C@@H]5CCC(=O)N5C)nc4)ncc3[C@@]3(C)COC(C)(C)C[C@@H]23)n1` (single isomer, unassigned) [Example 96], the results for the half-inhibitory concentration (IC50) (against Wee1 kinase domain; in experiment [1]) were < 10 nM and 100 to 1000 nM, respectively.

For the compound `CN1CCC(n2cc(Nc3ncc4c(n3)N(c3cccc(N=S(C)(C)=O)n3)[C@H]3CC(C)(C)OC[C@@]43C)cn2)CC1` (single isomer, unassigned) [Example 101], the IC50 against Wee1 kinase domain was in the range of 100 to 1000 nM; in experiment [1], 1000 to 10000 nM.

With `CN1CCC(n2cc(Nc3ncc4c(n3)N(c3cccc(N=S(C)(C)=O)n3)[C@@H]3CC(C)(C)OC[C@]43C)cn2)CC1` (single isomer, unassigned) [Example 102], the results for the IC50 (at Wee1 kinase domain; in experiment [1]) were < 10 nM and 100 to 1000 nM, respectively.

Turning to `Cc1cc(Nc2ncc3c(n2)N(c2cccc(N=S(C)(C)=O)n2)[C@@H]2CC(C)(C)OC[C@]32C)ccc1C1CCN(C)CC1` (single isomer, unassigned) [Example 104], the concentration for half-maximal inhibition (IC50) is < 10 nM at Wee1 kinase domain and < 100 nM in experiment [1].

Turning to `Cc1cc(Nc2ncc3c(n2)N(c2cccc(N=S(C)(C)=O)n2)[C@@H]2CC(C)(C)OC[C@]32C)ccc1N1CCN(C)CC1` (single isomer, unassigned) [Example 106], the IC50 was < 10 nM against Wee1 kinase domain and < 100 nM in experiment [1].

As for `CN1Cc2cc(Nc3ncc4c(n3)N(c3cccc(N=S(C)(C)=O)n3)[C@@H]3CC(C)(C)OC[C@]43C)ccc2C2(CC2)C1` (single isomer, unassigned) [Example 107], the half-maximal inhibitory concentration (IC50) against Wee1 kinase domain is < 10 nM; in experiment [1] it was < 100 nM.

Take `CN1CCc2ccc(Nc3ncc4c(n3)N(c3cccc(N=S(C)(C)=O)n3)[C@@H]3CC(C)(C)OC[C@]43C)cc2C1` (single isomer, unassigned) [Example 109]: the IC50 against Wee1 kinase domain was < 10 nM; in experiment [1], < 100 nM.

Take `CN1CCC(c2ccc(Nc3ncc4c(n3)N(c3cccc(N=S(C)(C)=O)n3)[C@H]3CC(C)(C)OC[C@@]43C)cc2)CC1` (single isomer, unassigned) [Example 112]: the IC50 at Wee1 kinase domain is < 10 nM; in experiment [1], < 100 nM.

As for `Cc1cc(Nc2ncc3c(n2)N(c2cccc(N=S(C)(C)=O)n2)[C@@H]2CC(C)(C)OC[C@]32C)ccc1[C@@H]1COCCN1` (single isomer, unassigned) [Example 114], the results for the concentration for half-maximal inhibition (IC50) (against Wee1 kinase domain; in experiment [1]) were < 10 nM and < 100 nM, respectively.

Turning to `CNC(=O)c1ccc(Nc2ncc3c(n2)N(c2cccc(N=S(C)(C)=O)n2)[C@@H]2CC(C)(C)OC[C@]32C)cc1` (single isomer, unassigned) [Example 117], the half-maximal inhibitory concentration (IC50) against Wee1 kinase domain is < 10 nM; in experiment [1], < 100 nM.

In the case of `Cc1cc(Nc2ncc3c(n2)N(c2cccc(N=S(C)(C)=O)n2)[C@@H]2CC(C)(C)OC[C@]32C)ccc1[C@H]1COCCN1` (single isomer, unassigned) [Example 120], the figures for the concentration for half-maximal inhibition (IC50) (at Wee1 kinase domain; in experiment [1]) were < 10 nM and < 100 nM, respectively.

With `CN1C[C@H]2C[C@@H]1CN2c1ccc(Nc2ncc3c(n2)N(c2cccc(N=S(C)(C)=O)n2)[C@@H]2CC(C)(C)OC[C@]32C)cc1` (single isomer, unassigned) [Example 122], the values for the IC50 (against Wee1 kinase domain; in experiment [1]) were < 10 nM and < 100 nM, respectively.

In the case of `CN1C[C@@H]2C[C@H]1CN2c1ccc(Nc2ncc3c(n2)N(c2cccc(N=S(C)(C)=O)n2)[C@@H]2CC(C)(C)OC[C@]32C)cc1` (single isomer, unassigned) [Example 124], the figures for the 50% inhibitory concentration (IC50) (at Wee1 kinase domain; in experiment [1]) were < 10 nM and < 100 nM, respectively.

Regarding `CN1CCC[C@H]1c1ccc(Nc2ncc3c(n2)N(c2cccc(N=S(C)(C)=O)n2)[C@@H]2CC(C)(C)OC[C@]32C)cc1` (single isomer, unassigned) [Example 126], the IC50 at Wee1 kinase domain was < 10 nM; in experiment [1], < 100 nM.

Turning to `CN1CCC[C@@H]1c1ccc(Nc2ncc3c(n2)N(c2cccc(N=S(C)(C)=O)n2)[C@@H]2CC(C)(C)OC[C@]32C)cc1` (single isomer, unassigned) [Example 127], the IC50 at Wee1 kinase domain was < 10 nM; in experiment [1], < 100 nM.

As for `CN1CC[C@@H](c2ccc(Nc3ncc4c(n3)N(c3cccc(N=S(C)(C)=O)n3)[C@@H]3CC(C)(C)OC[C@]43C)cc2)C1` (single isomer, unassigned) [Example 129], the half-maximal inhibitory concentration (IC50) against Wee1 kinase domain was < 10 nM; in experiment [1], < 100 nM.

For `CC1(C)C[C@H]2N(c3cccc(N=S(C)(C)=O)n3)c3nc(Nc4ccc([C@@H]5CCNC5)cc4)ncc3[C@@]2(C)CO1` (single isomer, unassigned) [Example 131], the values for the 50% inhibitory concentration (IC50) (against Wee1 kinase domain; in experiment [1]) were < 10 nM and < 100 nM, respectively.

As for `CN1CC[C@H](c2ccc(Nc3ncc4c(n3)N(c3cccc(N=S(C)(C)=O)n3)[C@@H]3CC(C)(C)OC[C@]43C)cc2)C1` (single isomer, unassigned) [Example 133], the figures for the IC50 (against Wee1 kinase domain; in experiment [1]) were < 10 nM and 100 to 1000 nM, respectively.

Regarding `CN1Cc2cc(Nc3ncc4c(n3)N(c3cccc(N=S(C)(C)=O)n3)[C@@H]3CC(C)(C)OC[C@]43C)ccc2C(C)(C)C1` (single isomer, unassigned) [Example 135], the IC50 on Wee1 kinase domain is < 10 nM; in experiment [1], < 100 nM.
